Results on 60 compounds are retold here after ChEMBL document CHEMBL3988442, “University of Dundee, Small-Polar-MMV Screening Library” (2021).

Assay [1] is described as follows: microbe, parasite or virus in culture. The settings on record: Mycobacterium tuberculosis, 96 h, read-out: pIC50 (converted).
Assay [2] is described as follows: microbe, parasite or virus in culture. The settings on record: Mycobacterium tuberculosis, 72 h, read-out: pIC50 (converted).

Some results are limits rather than exact numbers.

`O=C1NCC2(CCCN(C(=O)c3c[nH]nc3-c3cccs3)C2)O1` (stereo not given): the IC50 in assay [1] and in assay [2] was over 50.1 µM in each case.
`NCCCc1ccccn1`: the IC50 in assay [1] and in assay [2] was over 501 µM throughout.
As for `CC(C)NC(=O)NC(C)c1ccccc1` (stereo not given), the IC50 in assay [1] and in assay [2] was over 501 µM each time.
Take `O=C1c2ccccc2OCC1CN1CCOCC1` (stereo not given): the values for the IC50 in assay [1] and in assay [2] were over 501 µM and 266 µM, respectively.
Taken in the same sequence, the figures for `Cc1cc(C(=O)NCC2Cn3nnc(C)c3CO2)no1` (stereo not given) were over 50.1 µM and over 50.1 µM.
Taken in the same sequence, the figures for `Cc1cc(Cl)ccc1NC(=O)CSc1n[nH]c(N)n1` were over 501 µM and over 501 µM.
With `CCN(Cc1cnn(C)c1)C[C@H]1CC[C@@H](Cc2cccc(CN)c2)O1`, the IC50 in assay [1] and in assay [2] was over 50.1 µM throughout.
Take `O=C(COC(=O)c1ccccn1)Nc1ccccc1`: the IC50 in assay [1] is over 501 µM; in assay [2] it was 234 µM.
For `O=C(c1cccnc1)N1CCC2(CC1)CNc1c(F)cccc12`, in that order: over 50.1 µM and over 50.1 µM.
Taken in the same sequence, the figures for `N#Cc1ccccc1N1CCCC(N)C1` (stereo not given) were 142 µM and 79.7 µM.
For `CC(=O)N1CCCC1c1nnc2n1CCCCC2` (stereo not given), in that order: over 50.1 µM and over 50.1 µM.
On to `Cc1ccc(F)c(S(=O)(=O)N2C[C@H](C3CC3)[C@@H](N)C2)c1`, for which the IC50 in assay [1] and in assay [2] was over 501 µM throughout.
On to `CC(C)c1ccc(CN2C(=O)C3(CCNCC3)Nc3ccccc32)cc1`, for which the IC50 is 22.3 µM in assay [1] and 32 µM in assay [2].
Take `Cn1nnc(NCc2ccc(-c3ccc(Cl)cc3)o2)n1`: the values for the IC50 in assay [1] and in assay [2] were 8.3 µM and 42.2 µM, respectively.
For `CCOc1ccc(Cl)cc1CCNS(=O)(=O)N(C)C`, in that order: 282 µM and 245 µM.
For `NCCCc1nc(-c2ccc(F)cc2)no1`, the IC50 is 186 µM in assay [1] and 163 µM in assay [2].
Taken in the same sequence, the figures for `CCOc1cc(C(=O)NCCCOC(C)C)ccn1` were 137 µM and 87.9 µM.
For `CC(C)CCNC(=O)Nc1ccc(-n2cccn2)nc1`, in that order: 90 µM and 103 µM.
For `Cc1cccc(NC(=O)NCc2c(C)noc2C)n1`, in that order: over 501 µM and 238 µM.
Regarding `CC(C)n1ccc(CC(=O)N2CCCC2)n1`, the IC50 in assay [1] and in assay [2] was over 501 µM each time.
With `CCn1ccnc1CN1CCCC1Cn1cc(C)cn1` (stereo not given), the IC50 in assay [1] is over 50.1 µM; in assay [2], 46.3 µM.
For the compound `Cc1cc(C[C@@H]2COC[C@H]2NCc2ccc(C(C)C)cc2)on1`, the IC50 in assay [1] was 11.5 µM; in assay [2], 34.6 µM.
For `NCCc1nc(-c2cccc(Cl)c2)no1`, in that order: 190 µM and 122 µM.
Taken in the same sequence, the figures for `COc1c(Cl)cc(NC(=O)C2COCCN2)cc1Cl` (stereo not given) were over 501 µM and 200 µM.
For `O=C(Cn1ccc(C(F)(F)F)n1)Nc1ccccn1`, in that order: over 501 µM and 224 µM.
Consider `NCCc1nc(C2CC2)cs1`, for which the IC50 in assay [1] was 103 µM; in assay [2], 91.5 µM.
Taken in the same sequence, the figures for `COc1cc(C(=O)Nc2nc(C)no2)ccc1C` were over 50.1 µM and over 50.1 µM.
On to `N#CC1(C(=O)N2CCc3sccc3C2)CCCC1`, for which the IC50 was 167 µM in assay [1] and 475 µM in assay [2].
Taken in the same sequence, the figures for `CC1CCCN(c2nc(C(=O)N3CCOCC3)cs2)C1` (stereo not given) were 146 µM and 133 µM.
Turning to `Cc1nc(-c2cccc(N3CCC(N4CCCC4)CC3)c2)cs1`, the figures for the IC50 in assay [1] and in assay [2] were 24.2 µM and over 50.1 µM, respectively.
Taken in the same sequence, the figures for `C=C(C)CSc1nnnn1Cc1ccco1` were 55.3 µM and 51.6 µM.
Taken in the same sequence, the figures for `Cc1cccc(-c2ccc(C(=O)N3CCSCC3)c(=O)[nH]2)c1` were over 50.1 µM and 36.1 µM.
Taken in the same sequence, the figures for `CC(CN1CCOCC1)NC(=O)c1csc(Br)c1` (stereo not given) were 205 µM and 102 µM.
As for `Cc1ccc(CN2CC[C@H](c3nnc(COc4ccc(F)cc4)o3)C2)o1`, the IC50 in assay [1] is 37.2 µM; in assay [2] it was over 50.1 µM.
For `Cc1nn(C2CCCC2)c2nc(C(C)(C)CN3CCN(C)CC3)[nH]c12`, in that order: over 50.1 µM and over 50.1 µM.
Taken in the same sequence, the figures for `CCNCc1ccc2c(c1)OCO2` were over 501 µM and 280 µM.
For `Cc1[nH]ncc1C(=O)NCCCSCC(C)C`, in that order: over 501 µM and 102 µM.
For the compound `NCCC1CN(Cc2cc3ccccc3s2)CCO1` (stereo not given), the IC50 in assay [1] was 332 µM; in assay [2], 308 µM.
Taken in the same sequence, the figures for `Cc1ccc(NCc2cccc(O)c2)cc1S(C)(=O)=O` were 333 µM and 89.7 µM.
For `CNC(=O)[C@@H](C)NC(=O)c1ccc(-c2ccc(C)o2)s1`, in that order: 278 µM and 297 µM.
Consider `COCCOCCCNC(=O)c1cn2cc(C)nc2s1`, for which the results for the IC50 in assay [1] and in assay [2] were over 501 µM and 271 µM, respectively.
Taken in the same sequence, the figures for `COc1cc(CNC(=O)Nc2ccnc(C)c2)ccn1` were 98.2 µM and 100 µM.
Taken in the same sequence, the figures for `Cc1nn(C)c(C)c1CN(CCO)C(=O)C1COc2ccccc2C1` (stereo not given) were over 50.1 µM and over 50.1 µM.
For `N#Cc1ccc(S(=O)(=O)NCCN)cc1C(F)(F)F`, in that order: 223 µM and 160 µM.
On to `OCCCC(Nc1ccccn1)c1ccccc1` (stereo not given), for which the IC50 in assay [1] is 111 µM; in assay [2] it was 109 µM.
With `COCCOCc1cccc(NC(=O)NC(C)C)c1`, the IC50 in assay [1] and in assay [2] was over 501 µM each time.
In the case of `COCCOc1ccc(C(=O)NCc2ccco2)cc1`, the IC50 in assay [1] is 61.7 µM; in assay [2], 109 µM.
Taken in the same sequence, the figures for `Cc1c(C(=O)NCC(N)=O)oc2ccc(Cl)cc12` were 218 µM and 102 µM.
On to `Cc1ccccc1-c1[nH][nH]c(=O)c1CCN`, for which the values for the IC50 in assay [1] and in assay [2] were over 501 µM and 230 µM, respectively.
For `CCS(=O)(=O)NC1CCN(c2cc(Br)ccn2)CC1`, in that order: over 501 µM and 146 µM.
For `CCc1nnsc1C(=O)N1CCc2sccc2C1`, in that order: over 501 µM and 176 µM.
For `Cc1cc(C)cc(NC(=O)CNCCCO)c1`, in that order: over 501 µM and over 501 µM.
For the compound `Cc1ccc(-c2noc(CN3CC(n4cc(C)cn4)C3)n2)cc1`, the IC50 was 22.6 µM in assay [1] and 49.1 µM in assay [2].
Taken in the same sequence, the figures for `COc1c(C)cc(Br)cc1C(=O)Nc1nnn(C)n1` were 209 µM and 206 µM.
On to `O=C(NC1CCCNC1)c1coc2ccccc12` (stereo not given), for which the IC50 in assay [1] and in assay [2] was over 501 µM in each case.
With `CCc1ccc(CNc2ccc(CO)cn2)cc1`, the values for the IC50 in assay [1] and in assay [2] were 356 µM and 160 µM, respectively.
For `CCCOC(=O)C(C)NC(=O)c1cccs1` (stereo not given), in that order: 287 µM and 249 µM.
Taken in the same sequence, the figures for `COc1cc(C(=O)NCCc2ccc(Cl)cc2)on1` were over 50.1 µM and 4.56 µM.
For `Clc1ccc(-c2nnc([C@H]3CCN(C4CCCCC4)C3)o2)cc1`, in that order: 24.2 µM and 7.04 µM.
On to `O=C(NCc1n[nH]c2c1CCCCC2)c1cnn2c1CCCC2`, for which the IC50 in assay [1] and in assay [2] was over 50.1 µM each time.
